# In patent US20200264191A1, “METHODS AND KITS FOR DIAGNOSIS OF FAMILIAL MEDITERRANEAN FEVER” (INSERM (Institut National de la Santé et de la Recherche …, priority 2017, published 2020):
# How the values were obtained:
# [1] = tested on: Primary monocytes from HD or FMF patients; assay: IL-1β release by primary monocytes (ELISA of supernatant); conditions: LPS-primed; Ro 31-8220 100 μM or ATP 2.5 mM, 1.5 h
# Description: Blood was drawn in heparin-coated tubes and kept at room temperature overnight. The next day, peripheral blood mononuclear cells (PBMCs) were isolated by density-gradient centrifugation using Lymphocyte Separation Medium (Eurobio) [23]. Monocytes were isolated from PBMCs by magnetic selection using CD14 MicroBeads (Miltenyi Biotec) [24] and the AutoMACS Pro Separator (Miltenyi Biotec) following manufacturer's instructions. Monocytes were enumerated in the presence of a viability marker (propidium iodide, 10 μg/ml) by flow cytometry (BD Accuri C6 Flow Cytometer®) [25].
# When indicated, monocytes were incubated for 3 hours in the presence of LPS (10 ng/ml, Invivogen). […] Following the incubation, cells were centrifuged and supernatants were collected.
# Levels of IL-1β in monocyte supernatants were quantified by ELISA (R&D Systems). […] Three technical replicates per conditions were done.
# PKCγ = PKCγ (Homo sapiens, UniProt P05129); conditions: cell-free assays where stated; cited from earlier work
# PKC = conditions: cited from earlier work
# PKCα = PKCα (Homo sapiens, UniProt P17252); conditions: cell-free assays where stated; cited from earlier work
# PKCβI = PKCβI (Homo sapiens, UniProt P05771); conditions: cell-free assays where stated; read-out: IC50 for PKCβI (PKCβ1); cited from earlier work
# PKCβII = PKCβII (Homo sapiens, UniProt P05771); conditions: cell-free assays where stated; read-out: IC50 for PKCβII (PKCβ2); cited from earlier work
# PKA = conditions: cited from earlier work
# [2] = tested on: apamin-sensitive K+ channels; conditions: cited from earlier work
# PKC (Rat brain) = conditions: cited from earlier work
# PKCμ = molecular target: T1, PKCμ (Homo sapiens, UniProt Q15139); conditions: cited from earlier work
# T1 sequence (Q15139 1-912): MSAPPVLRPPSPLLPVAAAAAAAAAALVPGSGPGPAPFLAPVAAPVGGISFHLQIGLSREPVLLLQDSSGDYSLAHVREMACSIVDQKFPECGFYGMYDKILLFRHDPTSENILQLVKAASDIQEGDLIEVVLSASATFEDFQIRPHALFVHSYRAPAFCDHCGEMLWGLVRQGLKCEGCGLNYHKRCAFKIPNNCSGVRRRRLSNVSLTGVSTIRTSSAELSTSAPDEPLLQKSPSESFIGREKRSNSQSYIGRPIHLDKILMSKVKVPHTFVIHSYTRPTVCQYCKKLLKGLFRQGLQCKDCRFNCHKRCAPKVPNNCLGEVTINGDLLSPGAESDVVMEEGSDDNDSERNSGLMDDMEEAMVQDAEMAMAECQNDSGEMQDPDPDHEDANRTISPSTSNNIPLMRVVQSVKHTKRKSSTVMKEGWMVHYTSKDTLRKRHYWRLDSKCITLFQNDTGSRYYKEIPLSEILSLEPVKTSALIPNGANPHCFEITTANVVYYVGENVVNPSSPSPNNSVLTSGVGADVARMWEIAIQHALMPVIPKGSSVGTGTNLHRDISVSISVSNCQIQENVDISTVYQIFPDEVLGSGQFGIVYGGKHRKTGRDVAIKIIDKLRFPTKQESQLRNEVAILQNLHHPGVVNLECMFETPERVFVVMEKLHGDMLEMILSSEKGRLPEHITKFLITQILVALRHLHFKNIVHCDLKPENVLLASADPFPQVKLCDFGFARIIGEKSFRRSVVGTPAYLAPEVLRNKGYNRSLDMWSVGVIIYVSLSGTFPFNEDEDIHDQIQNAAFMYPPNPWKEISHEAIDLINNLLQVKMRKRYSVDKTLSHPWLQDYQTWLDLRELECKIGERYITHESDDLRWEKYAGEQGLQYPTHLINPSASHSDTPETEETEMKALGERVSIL
# PKCβ = PKCβ (Homo sapiens, UniProt P05771); conditions: cell-free assays where stated; cited from earlier work
# PKCδ = PKCδ (Homo sapiens, UniProt Q05655); conditions: cell-free assays where stated; cited from earlier work
# PKCζ = molecular target: T2, PKCζ (Homo sapiens, UniProt Q05513); conditions: cited from earlier work
# T2 sequence (Q05513 1-592): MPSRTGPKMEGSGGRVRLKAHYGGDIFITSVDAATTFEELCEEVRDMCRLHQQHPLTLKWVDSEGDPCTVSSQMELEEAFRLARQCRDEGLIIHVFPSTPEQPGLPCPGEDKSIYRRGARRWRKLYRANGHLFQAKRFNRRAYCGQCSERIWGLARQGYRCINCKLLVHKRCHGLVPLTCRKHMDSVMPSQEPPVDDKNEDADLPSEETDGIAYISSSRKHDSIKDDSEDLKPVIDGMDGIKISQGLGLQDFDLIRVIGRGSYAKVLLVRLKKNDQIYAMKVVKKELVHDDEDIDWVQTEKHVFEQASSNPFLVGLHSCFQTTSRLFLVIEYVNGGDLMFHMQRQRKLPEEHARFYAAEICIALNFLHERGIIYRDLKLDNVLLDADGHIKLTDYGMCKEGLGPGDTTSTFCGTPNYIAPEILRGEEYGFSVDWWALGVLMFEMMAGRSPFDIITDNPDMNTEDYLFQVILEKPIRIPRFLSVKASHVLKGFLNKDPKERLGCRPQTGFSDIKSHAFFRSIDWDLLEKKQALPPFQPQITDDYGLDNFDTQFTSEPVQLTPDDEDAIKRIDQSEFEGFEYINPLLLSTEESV
# PI3K = conditions: cited from earlier work
# PKCε = molecular target: T3, PKCε (Homo sapiens, UniProt Q02156); conditions: cell-free assays where stated; cited from earlier work
# T3 sequence (Q02156 1-737): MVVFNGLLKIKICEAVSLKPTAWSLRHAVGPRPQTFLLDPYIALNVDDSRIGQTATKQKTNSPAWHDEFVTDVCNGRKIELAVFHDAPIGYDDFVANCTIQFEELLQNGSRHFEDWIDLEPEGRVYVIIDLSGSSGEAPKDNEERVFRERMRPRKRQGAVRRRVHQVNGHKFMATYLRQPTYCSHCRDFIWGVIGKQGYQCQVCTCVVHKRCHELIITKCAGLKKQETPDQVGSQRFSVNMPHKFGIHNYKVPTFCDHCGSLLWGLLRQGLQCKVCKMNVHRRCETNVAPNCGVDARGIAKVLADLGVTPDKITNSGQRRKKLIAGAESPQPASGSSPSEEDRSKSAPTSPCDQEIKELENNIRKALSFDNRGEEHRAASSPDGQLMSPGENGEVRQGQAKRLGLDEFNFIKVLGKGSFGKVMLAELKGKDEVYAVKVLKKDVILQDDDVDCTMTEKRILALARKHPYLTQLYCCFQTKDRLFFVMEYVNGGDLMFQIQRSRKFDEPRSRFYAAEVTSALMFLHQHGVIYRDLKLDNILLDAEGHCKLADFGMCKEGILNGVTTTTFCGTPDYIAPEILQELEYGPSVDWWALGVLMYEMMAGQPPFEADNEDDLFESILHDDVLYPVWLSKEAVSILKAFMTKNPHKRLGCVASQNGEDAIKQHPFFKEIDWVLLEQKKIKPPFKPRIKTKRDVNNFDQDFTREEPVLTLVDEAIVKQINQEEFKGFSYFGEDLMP
# PKN2 = PKN2 (Homo sapiens, UniProt Q16513); conditions: cited from earlier work
# PKCθ = PKCθ (Homo sapiens, UniProt Q04759); conditions: cell-free assay; cited from earlier work
# [3] = tested on: Primary monocytes from HD or FMF patients; assay: Monocyte cell death by propidium iodide incorporation; type: cell-based, human; conditions: for difference in AUC of cell death kinetics between FMF and HD monocytes (in words): UCN-01 12.5 μM unprimed, or LPS then nigericin 5 μM
# Description: Propidium iodide incorporation was monitored every 5 minutes from 5 minutes to 105 minutes post-UCN-01/nigericin stimulation using a fluorimeter. Cell death was calculated using TX-100-treated cells (100% cell death) and normalized cell death kinetics are presented (A, D). Each symbol corresponds to the average values of the normalized cell death of monocytes from 17 HD and […]. Mean and standard deviations are shown at each time point. […] (C-G) The time post-treatment needed to reach 20% monocytes cell death was calculated from each HD (n=17) and FMF patients (n=13) cell death kinetics. […] The bar represents the mean.
# Cell death was determined by measuring propidium iodide incorporation/fluorescence at 1 h30 post stauroporin addition. […] The bar represents the mean. Cell death was normalized using TX-100-treated cells (100% cell death). With a cell death threshold set at 10% (horizontal line), this assay discriminates healthy donors from FMF patients.
# Three technical replicates per conditions were done.
# [4] = LPS 10 ng/ml 3 h, then nigericin 5 μM
# Sequence of PKCβII (P05771 1-673 isoform P05771-2): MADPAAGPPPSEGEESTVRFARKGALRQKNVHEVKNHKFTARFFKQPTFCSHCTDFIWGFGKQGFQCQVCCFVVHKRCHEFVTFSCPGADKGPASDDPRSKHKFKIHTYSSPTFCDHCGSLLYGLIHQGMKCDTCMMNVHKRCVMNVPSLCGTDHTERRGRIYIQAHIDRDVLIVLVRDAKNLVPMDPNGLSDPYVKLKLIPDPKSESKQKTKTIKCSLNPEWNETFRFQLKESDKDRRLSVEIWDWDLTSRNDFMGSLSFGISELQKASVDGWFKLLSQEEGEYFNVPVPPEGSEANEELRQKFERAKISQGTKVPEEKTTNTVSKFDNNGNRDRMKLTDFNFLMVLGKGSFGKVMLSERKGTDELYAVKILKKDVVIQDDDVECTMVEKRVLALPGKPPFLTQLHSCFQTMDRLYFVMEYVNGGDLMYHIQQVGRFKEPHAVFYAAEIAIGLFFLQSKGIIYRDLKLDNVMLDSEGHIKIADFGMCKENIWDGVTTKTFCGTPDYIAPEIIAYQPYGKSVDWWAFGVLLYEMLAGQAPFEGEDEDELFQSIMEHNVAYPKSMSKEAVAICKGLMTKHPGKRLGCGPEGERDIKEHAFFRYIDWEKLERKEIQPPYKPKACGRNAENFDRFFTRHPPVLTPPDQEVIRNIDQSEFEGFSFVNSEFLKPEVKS
# Sequence of PKCβI (P05771 whole entry): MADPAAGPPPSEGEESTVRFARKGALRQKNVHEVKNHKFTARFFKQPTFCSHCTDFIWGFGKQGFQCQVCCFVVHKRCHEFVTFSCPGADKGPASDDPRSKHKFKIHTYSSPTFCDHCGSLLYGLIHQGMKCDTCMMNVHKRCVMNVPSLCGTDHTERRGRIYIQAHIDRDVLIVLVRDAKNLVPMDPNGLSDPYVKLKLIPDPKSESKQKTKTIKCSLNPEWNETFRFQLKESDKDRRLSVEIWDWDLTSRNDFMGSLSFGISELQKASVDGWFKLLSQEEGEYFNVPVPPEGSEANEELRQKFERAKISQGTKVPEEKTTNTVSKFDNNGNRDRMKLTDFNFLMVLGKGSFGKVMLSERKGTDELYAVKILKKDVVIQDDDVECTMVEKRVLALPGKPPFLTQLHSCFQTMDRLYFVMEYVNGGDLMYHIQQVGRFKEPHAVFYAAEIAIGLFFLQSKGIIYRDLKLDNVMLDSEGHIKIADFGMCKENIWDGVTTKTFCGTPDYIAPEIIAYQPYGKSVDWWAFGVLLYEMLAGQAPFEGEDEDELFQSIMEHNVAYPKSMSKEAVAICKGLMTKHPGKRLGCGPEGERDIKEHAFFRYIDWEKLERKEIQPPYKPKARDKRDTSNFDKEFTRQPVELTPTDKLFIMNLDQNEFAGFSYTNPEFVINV
# Sequence of PKCδ (Q05655 whole entry): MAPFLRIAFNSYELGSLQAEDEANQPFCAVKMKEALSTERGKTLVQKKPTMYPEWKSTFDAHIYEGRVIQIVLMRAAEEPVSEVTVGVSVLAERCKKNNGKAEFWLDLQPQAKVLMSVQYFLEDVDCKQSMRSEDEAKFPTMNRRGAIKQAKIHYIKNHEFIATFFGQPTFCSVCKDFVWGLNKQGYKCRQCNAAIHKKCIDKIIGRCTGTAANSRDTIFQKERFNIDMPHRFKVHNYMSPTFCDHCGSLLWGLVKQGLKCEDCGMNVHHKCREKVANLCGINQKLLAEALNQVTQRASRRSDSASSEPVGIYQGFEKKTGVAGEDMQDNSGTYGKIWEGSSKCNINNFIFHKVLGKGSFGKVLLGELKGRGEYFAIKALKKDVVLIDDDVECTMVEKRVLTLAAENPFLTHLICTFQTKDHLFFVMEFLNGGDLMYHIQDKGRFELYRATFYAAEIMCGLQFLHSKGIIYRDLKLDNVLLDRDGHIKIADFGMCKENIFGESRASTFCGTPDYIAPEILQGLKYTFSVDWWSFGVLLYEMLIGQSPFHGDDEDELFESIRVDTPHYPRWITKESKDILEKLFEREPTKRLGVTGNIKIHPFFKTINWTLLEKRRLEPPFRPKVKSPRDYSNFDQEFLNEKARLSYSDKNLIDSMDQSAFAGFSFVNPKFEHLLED
# Sequence of PKCθ (Q04759 whole entry): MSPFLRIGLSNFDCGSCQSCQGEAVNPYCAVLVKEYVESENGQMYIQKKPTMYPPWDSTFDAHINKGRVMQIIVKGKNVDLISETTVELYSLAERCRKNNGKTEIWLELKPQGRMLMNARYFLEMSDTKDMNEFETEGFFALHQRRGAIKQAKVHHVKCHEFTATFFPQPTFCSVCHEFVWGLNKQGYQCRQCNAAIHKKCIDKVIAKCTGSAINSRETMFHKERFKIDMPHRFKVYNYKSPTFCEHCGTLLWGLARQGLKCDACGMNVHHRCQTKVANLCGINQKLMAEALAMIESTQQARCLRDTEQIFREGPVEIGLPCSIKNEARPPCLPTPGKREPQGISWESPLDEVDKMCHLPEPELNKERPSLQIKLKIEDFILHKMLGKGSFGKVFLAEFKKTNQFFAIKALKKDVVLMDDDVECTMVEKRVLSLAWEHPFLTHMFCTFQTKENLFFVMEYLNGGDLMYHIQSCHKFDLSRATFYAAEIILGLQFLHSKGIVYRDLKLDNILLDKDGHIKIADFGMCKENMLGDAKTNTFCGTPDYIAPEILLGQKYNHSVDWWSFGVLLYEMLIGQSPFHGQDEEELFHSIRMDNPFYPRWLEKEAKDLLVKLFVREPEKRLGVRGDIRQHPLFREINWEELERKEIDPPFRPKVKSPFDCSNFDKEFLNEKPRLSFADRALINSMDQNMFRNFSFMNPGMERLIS
# Sequence of PKCβ (P05771 whole entry, species assumed): as the sequence (P05771 whole entry) above
structure (smiles),measurement,setting,value
Nc1ncnc2c1ncn2[C@@H]1O[C@H](COP(=O)(O)OP(=O)(O)OP(=O)(O)O)[C@@H](O)[C@H]1O [ATP],difference in IL-1β release between FMF and HD monocytes (in words),[1],did not observe any difference
CN(C)CCCn1cc(C2=C(c3c[nH]c4ccccc34)C(=O)NC2=O)c2ccccc21 [Bisindolylmaleimide I],IC50,PKCγ,20 nM
same,"selectivity for PKC as compared to EGFR, PDGFR and insulin receptor",PKC,more than 3000 fold
same,IC50,PKCα,20 nM
same,IC50,PKCβI,17 nM
same,IC50,PKCβII,16 nM
O=c1ccc2ccc(O)c(O)c2o1 [Daphnetin],IC50,PKA,9330 nM
same,IC50,PKC,25000 nM
Cc1cc(N)c2ccccc2[n+]1CCCCCCCCCC[n+]1c(C)cc(N)c2ccccc21 [Dequalinium Chloride],IC50,[2],1100 nM
same,IC50,PKC,7000 to 18000 nM
Cn1c2ccccc2c2c3c(c4c5ccccc5n(CCC#N)c4c21)CNC3=O [Go6976],IC50,PKC (Rat brain),7.9 nM
COc1ccc2c(c1)c(C1=C(c3c[nH]c4ccccc34)C(=O)NC1=O)cn2CCCN(C)C [Go 6983],activity on PKCμ (in words),PKCμ,inactive
same,IC50,PKCγ,6 nM
same,IC50,PKCβ,7 nM
same,IC50,PKCδ,10 nM
same,activity on PKCζ (in words),PKCζ,less potent
same,IC50,PKCα,7 nM
O=c1c(O)c(-c2ccc(O)c(O)c2)oc2cc(O)cc(O)c12 [Quercetin],IC50,PI3K,2400 to 5400 nM
CS(=O)(=O)O.Cn1cc(C2=C(c3cn(CCCSC(=N)N)c4ccccc34)C(=O)NC2=O)c2ccccc21 [Ro 31-8220 Mesylate],IC50,PKCε,24 nM
same,difference in IL-1β release between FMF and HD monocytes (in words),[1],same trends
same,efficacy to inhibit PKN2 (in words),PKN2,low efficacy
same,IC50,PKCγ,27 nM
same,IC50,PKCα,5 nM
same,IC50,PKCβI,24 nM
same,IC50,PKCβII,14 nM
CN1CCN(c2nc(C3=C(c4c[nH]c5ccccc45)C(=O)NC3=O)c3ccccc3n2)CC1 [Sotrastaurin],Ki,PKCθ,0.22 nM
same,activity on PKCζ (in words),PKCζ,inactive
"CN[C@@H]1C[C@H]2O[C@@](C)([C@@H]1OC)n1c3ccccc3c3c4c(c5c6ccccc6n2c5c31)C(=O)N[C@H]4O [UCN-01, 7-hydroxystaurosporine]",IC50,PKCε,530 nM
same,difference in AUC of cell death kinetics between FMF and HD monocytes (in words),[3],statistical difference
same,"time to reach 20% cell death, FMF patients' monocytes","[3]; UCN-01 12.5 μM, no priming",less than 50 minutes
CO[C@@H]1C[C@@H](C[C@H]2CC[C@H](C)[C@H]([C@@H](C)C(=O)O)O2)O[C@]2(O[C@](C)([C@H]3CC[C@@](C)([C@@H]4O[C@@H]([C@H]5O[C@@](O)(CO)[C@H](C)C[C@@H]5C)C[C@@H]4C)O3)C[C@H]2C)[C@@H]1C [nigericin],"time to reach 20% cell death, FMF patients' monocytes",[3]; [4],74 min
same,"time to reach 20% cell death, monocytes from healthy controls",[3]; [4],72 min
same,difference in AUC of cell death kinetics between FMF and HD monocytes (in words),[3],did not demonstrate any statistical difference
